These are literature values, as cited in patent US8431724B2, “Iejimalid analoga and uses thereof” (Studiengesellschaft Kohle mbH, priority 2007, dated 2013).

Data set [1] relates to P388 leukemia. To be noted: Kobayashi's report.
In data set [2] the test system is panel of 60 standard human cancer cell lines. To be noted: NCI dataset 2005.

`CO[C@@H]1/C=C(C)/C=C/[C@@H](C)/C=C/C(=O)O[C@H](/C(C)=C/C=C(\C)CNC(=O)[C@H](COS(=O)(=O)[O-])NC=O)[C@@H](C)/C=C/C=C/[C@@H](OC)CC/C=C(C)\C=C\C1.[Na+]` [compound 3, Iejimalide C]: the “in vivo activity against P388 leukemia” value in data set [1] is on record as “potent in vivo activity”. As for Iejimalide A, in data set [2], the GI50 result is on record as “low nanomolar range” and the TGI entry is reported as “low nanomolar range”. Consider `CO[C@@H]1/C=C(C)/C=C/[C@@H](C)/C=C(\C)C(=O)O[C@H](/C(C)=C/C=C(\C)CNC(=O)[C@H](COS(=O)(=O)[O-])NC=O)[C@@H](C)/C=C/C=C/[C@@H](OC)CC/C=C(C)\C=C\C1.[Na+]` [compound 4, Iejimalide D], for which the “in vivo activity against P388 leukemia” value in data set [1] is listed as “potent in vivo activity”.
